Data: US9232796B2, “Herbicidal compositions comprising 4-amino-3-chloro-5-fluoro-6-(4-chloro-2-fluoro-3-methoxyphenyl) pyridine-2-carboxylic acid or a derivative thereof and acetyl-CoA carboxylase (ACCase) inhibitors” (DOW AGROSCIENCES LLC, priority 2012, dated 2016)

Experiments:
[1] = test system: APESV; assay: Example IV postemergence foliar-applied, greenhouse, cereal crops weeds; assay type: in vivo, Apera spica-venti (L.) Beauv.
Protocol: (§1) Seeds of the desired test plant species were planted in Sun Gro MetroMix® 306 planting mixture, which typically has a pH of 6.0 to 6.8 and an organic matter content of about 30 percent, in plastic pots with a surface area of 103.2 square centimeters (cm^2). […] The plants were grown for 7-36 days in a greenhouse with an approximate 14 hour photoperiod which was maintained at about 18° C. during the day and about 17° C. during the night. Nutrients and water were added on a regular basis and supplemental lighting was provided with overhead metal halide 1000-Watt lamps as necessary. The plants were employed for testing when they reached the second or third true leaf stage.
(§2) Treatments consisted of the benzyl ester of 4-amino-3-chloro-5-fluoro-6-(4-chloro-2-fluoro-3-methoxy-phenyl)pyridine-2-carboxylic acid (Compound A), formulated as an SC, a second cereal herbicide alone and then both in combination.
(§3) Other herbicidal components were applied on an active ingredient basis and included acetyl-CoA carboxylase (ACCase)-inhibiting herbicides clodinafop-propargyl, fenoxaprop-P-ethyl, pinoxaden and tralkoxydim.
(§4) Measured aliquots of benzyl ester of 4-amino-3-chloro-5-fluoro-6-(4-chloro-2-fluoro-3-methoxy-phenyl)pyridine-2-carboxylic acid (Compound A) were placed in 25 milliliter (mL) glass vials and diluted in a volume of 1.25% (v/v) Agri-Dex® crop oil concentrate to obtain stock solutions. Compound requirements are based upon a 12 mL application volume at a rate of 187 liters per hectare (L/ha). […] Formulated compounds were applied to the plant material with an overhead Mandel track sprayer equipped with an 8002E nozzle calibrated to deliver 187 L/ha over an application area of 0.503 square meters (m^2) at a spray height of 18 inches (46 cm) above average plant canopy. Control plants were sprayed in the same manner with the solvent blank.
(§5) The treated plants and control plants were placed in a greenhouse as described above and watered by sub-irrigation to prevent wash-off of the test compounds. After 20-22 days, the condition of the test plants as compared with that of the control plants was determined visually and scored on a scale of 0 to 100 percent where 0 corresponds to no injury and 100 corresponds to complete kill.
(§6) Colby's equation was used to determine the herbicidal effects expected from the mixtures (Colby, S. R. 1967. Calculation of the synergistic and antagonistic response of herbicide combinations. Weeds 15:20-22.).
(§7) The following equation was used to calculate the expected activity of mixtures containing two active ingredients, A and B: Expected=A+B−(A×B/100)

[2] = test system: KCHSC; assay: as above; assay type: in vivo, Kochia scoparia (L.) Schrad.
Protocol: as §1, §2, §3, §4, §5, §6, §7

[3] = test system: PHAMI; assay: as above; assay type: in vivo, Phalaris minor Retz.
Protocol: as §1, §2, §3, §4, §5, §6, §7

[4] = test system: IPOHE; assay: Example V (second) postemergence foliar-applied ternary mixtures, greenhouse, direct seeded rice weeds; assay type: in vivo, Ipomoea hederacea Jacq.
Protocol: (§8) The treated plants and control plants were placed in a greenhouse as described above and watered by sub-irrigation to prevent wash-off of the test compounds. After approximately 3 weeks, the condition of the test plants as compared with that of the untreated plants was determined visually and scored on a scale of 0 to 100 percent where 0 corresponds to no injury or growth inhibition and 100 corresponds to complete kill.
as §6
(§9) The following equation was used to calculate the expected activity of mixtures containing three active ingredients, A, B, and C: Expected=A+B+C−((A×B+A×C+B×C)/100)+(A×B×C/10000)

[5] = test system: CYPES; assay: as above; assay type: in vivo, Cyperus esculentus L.
Protocol: as §8, §6, §9

[6] = test system: ECHCG; assay: as above; assay type: in vivo, Echinochloa crus-galli (L.) Beauv.
Excerpt: Seeds or nutlets of the desired test plant species were planted in a soil matrix prepared by mixing a sandy loam or loam soil (e.g., 32 percent silt, 23 percent clay, and 45 percent sand, with a pH of about 6.5 and an organic matter content of about 1.9 percent) and calcareous grit in an 80 to 20 ratio. The soil matrix was contained in plastic pots with a volume of 1 quart and a surface area of 83.6 square centimeters (cm^2). When required to ensure good germination and healthy plants, a fungicide treatment and/or other chemical or physical treatment was applied. The plants were grown for 8-22 days in a greenhouse with an approximate 14 hr. photoperiod which was maintained at about 29° C. during the day and 26° C. during the night. Nutrients (Peters Excel® 15-5-15 5-Ca 2-Mg and iron chelate) were applied in the irrigation solution as needed and water was added on a regular basis. Supplemental lighting was provided with overhead metal halide 1000-Watt lamps as necessary. The plants were employed for testing when they reached the first through fourth true leaf stage.
Treatments consisted of the benzyl ester of 4-amino-3-chloro-5-fluoro-6-(4-chloro-2-fluoro-3-methoxy-phenyl)pyridine-2-carboxylic acid (Compound A), formulated as an SC (suspension concentrate), an ACCase inhibitor, and a third herbicidal component, each applied alone and in ternary combination. Forms of compound A were applied on an acid equivalent basis.
The ACCase inhibitor component was applied on an active ingredient basis and included cyhalofop-R-butyl formulated as Clincher® SF, fenoxaprop-p-ethyl formulated as RiceStar® HT, and profoxydim formulated as Aura® 20EC. Other herbicidal components were applied on an active ingredient or acid equivalent basis depending on the compound and included penoxsulam formulated as Grasp® SC, bentazon sodium formulated as Basagran®, triclopyr […] (TEA) salt formulated as Grandstand® R, bispyribac sodium formulated as Regiment® 80WP, imazamox ammonium formulated as Beyond®, benzobicyclon, quinclorac formulated as Facet® 75DF, glyphosate dimethylammonium (DMA) salt formulated as Durango® DMA, glufosinate ammonium formulated as Ignite® 280, fentrazamide formulated as an emulsifiable concentrate (EC), propyrisulfuron formulated as Zeta One®, and indanofan (technical grade material).
(§10) Treatment requirements were calculated based upon the rates being tested, the concentration of active ingredient or acid equivalent in the formulation, and a 12 mL application volume at a rate of 187 L/ha.
For treatments comprised of formulated compounds, measured amounts of compounds were placed individually in 25 mL glass vials and diluted in a volume of 1.25% (v/v) Agri-Dex® crop oil concentrate to obtain 12× stock solutions. […] Application solutions were prepared by adding an appropriate amount of each stock solution (e.g., 1 mL) and diluted to the appropriate final concentrations with the addition of 9 mL of an aqueous mixture of 1.25% (v/v) crop oil concentrate so that the final spray solutions contained 1.25% (v/v) crop oil concentrate.
As required, additional water and/or 97:3 v/v acetone/DMSO was added to individual application solutions so that the final acetone and DMSO concentrations of the application solutions being compared were 8.1% and 0.25%, respectively.
All stock solutions and applications solutions were visually inspected for compound compatibility prior to application. Spray solutions were applied to the plant material with an overhead Mandel track sprayer equipped with a 8002E nozzles calibrated to deliver 187 L/ha over an application area of 0.503 m^2 at a spray height of 18 inches (46 cm) above average plant canopy height. Control plants were sprayed in the same manner with the solvent blank.
The treated plants and control plants were placed in a greenhouse as described above and watered by sub-irrigation to prevent wash-off of the test compounds. […]

[7] = test system: LEFCH; assay: as above; assay type: in vivo, Leptochloa chinensis (L.) Nees
Protocol: as §8, §6, §9

[8] = test system: ECHCO; assay: as above; assay type: in vivo, Echinochloa colona (L.) Link; settings: 115 gai/ha
Protocol: as §8, §6, §9

[9] = test system: IPOHE; assay: Example I postemergence foliar-applied, greenhouse, direct seeded rice weeds; assay type: in vivo, Ipomoea hederacea Jacq.
Excerpt: (§11) Seeds or nutlets of the desired test plant species were planted in a soil matrix prepared by mixing a loam or sandy loam soil (e.g., 28.6 percent silt, 18.8 percent clay, and 52.6 percent sand, with a pH of about 5.8 and an organic matter content of about 1.8 percent) and calcareous grit in an 80 to 20 ratio. The soil matrix was contained in plastic pots with a volume of 1 quart and a surface area of 83.6 square centimeters (cm^2). When required to ensure good germination and healthy plants, a fungicide treatment and/or other chemical or physical treatment was applied. The plants were grown for 8-22 days in a greenhouse with an approximate 14 hr. photoperiod which was maintained at about 29° C. during the day and 26° C. during the night. Nutrients (Peters Excel® 15-5-15 5-Ca 2-Mg and iron chelate) were applied in the irrigation solution as needed and water was added on a regular basis. Supplemental lighting was provided with overhead metal halide 1000-Watt lamps as necessary. The plants were employed for testing when they reached the first through fourth true leaf stage.
(§12) Treatments consisted of the acid or esters of 4-amino-3-chloro-5-fluoro-6-(4-chloro-2-fluoro-3-methoxy-phenyl)pyridine-2-carboxylic acid (Compound A), each formulated as an SC (suspension concentrate), and various herbicidal components alone and in combination.
(§13) Other herbicidal components were applied on an acid equivalent (ae) or active ingredient (ai) basis and included acetyl coA carboxylase (ACCase)-inhibiting herbicides (cyclohexanedione and aryloxyphenoxypropionate chemical classes) cyhalofop-butyl formulated as Clincher® SF (285 gr ai/L EC), diclofop-methyl formulated as Hoelon® 3EC, fenoxaprop-p-ethyl+isoxadifen-ethyl formulated as RiceStar® HT (0.58 lb./gal EC), fenoxaprop-p-ethyl+mefenpyr diethyl formulated as Puma® IEC, metamifop formulated as Metamifop EC, haloxyfop-methyl formulated as Gallant Super®, fluazifop-p-butyl formulated as Fusilade® DX, quizalofop-p-ethyl formulated as Assure® II, profoxydim formulated as Aura® 20EC, clethodim applied as Intensity®, sethoxydim formulated as Poast®, and tralkoxydim formulated as Achieve®.
as §10
(§14) For treatments comprised of formulated compounds, measured amounts of compounds were placed individually in 25 mL glass vials and diluted in a volume of 1.25% (v/v) Agri-Dex® crop oil concentrated to obtain 12× stock solutions. […] Application solutions were prepared by adding an appropriate amount of each stock solution (e.g., 1 mL) and diluted to the appropriate final concentrations with the addition of 10 mL of an aqueous mixture of 1.25% (v/v) crop oil concentrate so that the final spray solutions contained 1.25+/−0.05% (v/v) crop oil concentrate.
(§15) All stock solutions and applications solutions were visually inspected for compound compatibility prior to application. Spray solutions were applied to the plant material with an overhead Mandel track sprayer equipped with a 8002E nozzles calibrated to deliver 187 L/ha over an application area of 0.503 m^2 at a spray height of 18 to 20 inches (46 to 50 cm) above average plant canopy height. Control plants were sprayed in the same manner with the solvent blank.
(§16) The treated plants and control plants were placed in a greenhouse as described above and watered by sub-irrigation to prevent wash-off of the test compounds. After approximately 3 weeks, the condition of the test plants as compared with that of the untreated plants was determined visually and scored on a scale of 0 to 100 percent where 0 corresponds to no injury or growth inhibition and 100 corresponds to complete kill. […]

[10] = test system: SCPJU; assay: as above; assay type: in vivo, Schoenoplectus juncoides (Roxb.) Palla
Excerpt: as §11, §12, §13, §10, §14, §15, §16

[11] = test system: ECHCO; assay: as above; assay type: in vivo, Echinochloa colona (L.) Link
Excerpt: as §11, §12, §13, §10, §14, §15, §16

CCOC(=O)[C@@H](C)Oc1ccc(Oc2nc3ccc(Cl)cc3o2)cc1 [Fenoxaprop-P-ethyl, ethyl(2R)-2-[4-[(6-chloro-2-benzoxazolyl)oxy]phenoxy]propanoate]
Visual Weed Control (%) - 21 DAA APESV Obs ([1]; Fenoxaprop-P-ethyl 23 gai/ha): 50%
Visual Weed Control (%) - 21 DAA APESV Obs ([1]; Fenoxaprop-P-ethyl 46 gai/ha): 83%
Visual Weed Control (%) - 21 DAA KCHSC Obs ([2]; Fenoxaprop-P-ethyl 23 gai/ha): 0%
Visual Weed Control (%) - 21 DAA KCHSC Obs ([2]; Fenoxaprop-P-ethyl 46 gai/ha): 0%
Visual Weed Control (%) - 21 DAA PHAMI Obs ([3]; Fenoxaprop-P-ethyl 23 gai/ha): 10%
Visual Weed Control (%) - 21 DAA PHAMI Obs ([3]; Fenoxaprop-P-ethyl 46 gai/ha): 45%

COc1cc(OC)nc(Oc2cccc(Oc3nc(OC)cc(OC)n3)c2C(=O)O)n1 [Bispyribac sodium]
Visual Weed Control (%) - 21 DAA IPOHE Obs ([4]; 28 gai/ha): 60%
Visual Weed Control (%) - 21 DAA CYPES Obs ([5]; 28 gai/ha): 20%

CNC.O=C(O)CNCP(=O)(O)O [Glyphosate DMA]
Visual Weed Control (%) - 21 DAA ECHCG Obs ([6]; 105 gae/ha): 23%
Visual Weed Control (%) - 21 DAA LEFCH Obs ([7]; 420 gai/ha): 45%

CP(=O)(O)CCC(N)C(=O)O (stereo not drawn) [Glufosinate ammonium]
Visual Weed Control (%) - 21 DAA ECHCO Obs [8]: 0%

CCc1cc(C)cc(CC)c1-c1c(OC(=O)C(C)(C)C)n2n(c1=O)CCOCC2 [Pinoxaden, 8-(2,6-diethyl-4-methylphenyl)-1,2,4,5-tetrahydro-7-oxo-7H-pyrazolo[1,2-d][1,4,5]oxadiazepin-9-yl 2,2-dimethylpropanoate]
Visual Weed Control (%) - 21 DAA IPOHE Obs ([9]; 15 gai/ha): 10%
Visual Weed Control (%) - 21 DAA IPOHE Obs ([9]; 30 gai/ha): 10%
Visual Weed Control (%) - 21 DAA IPOHE Obs ([9]; 60 gai/ha): 0%
Visual Weed Control (%) - 21 DAA SCPJU Obs ([10]; 15 gai/ha): 0%
Visual Weed Control (%) - 21 DAA SCPJU Obs ([10]; 30 gai/ha): 0%
Visual Weed Control (%) - 21 DAA SCPJU Obs ([10]; 60 gai/ha): 0%
Visual Weed Control (%) - 21 DAA ECHCO Obs ([11]; 15 gai/ha): 15%
Visual Weed Control (%) - 21 DAA ECHCO Obs ([11]; 30 gai/ha): 85%
Visual Weed Control (%) - 21 DAA ECHCO Obs ([11]; 60 gai/ha): 95%
Visual Weed Control (%) - 21 DAA KCHSC Obs ([2]; Pinoxaden 15 gai/ha): 0%
Visual Weed Control (%) - 21 DAA KCHSC Obs ([2]; Pinoxaden 30 gai/ha): 15%
Visual Weed Control (%) - 21 DAA PHAMI Obs ([3]; Pinoxaden 15 gai/ha): 78%
Visual Weed Control (%) - 21 DAA PHAMI Obs ([3]; Pinoxaden 30 gai/ha): 94%

CCC1(CC2(c3cccc(Cl)c3)CO2)C(=O)c2ccccc2C1=O (stereo not drawn) [Indanofan]
Visual Weed Control (%) - 22 DAA LEFCH Obs ([7]; 72.5 gai/ha): 30%
Visual Weed Control (%) - 22 DAA LEFCH Obs ([7]; 145 gai/ha): 38%

O=C(O)c1c(Cl)ccc2cc(Cl)cnc12 [Quinclorac]
Visual Weed Control (%) - 21 DAA ECHCG Obs ([6]; 280 gai/ha): 10%
Visual Weed Control (%) - 21 DAA CYPES Obs ([5]; 280 gai/ha): 0%

COCc1cnc(C2=NC(C)(C(C)C)C(=O)N2)c(C(=O)O)c1 (stereo not drawn) [Imazamox ammonium]
Visual Weed Control (%) - 21 DAA IPOHE Obs ([4]; 6 gae/ha): 65%
Visual Weed Control (%) - 21 DAA CYPES Obs ([5]; 12 gae/ha): 60%
